Earlier results in patent US12558321B2, “Pharmaceutical formulation” (CIPLA LIMITED, priority 2018, dated 2026).

solubility at neutral conditions (neutral conditions): poor solubility | solubility in water (water): slightly soluble in water
SMILES: COC(=O)c1ccc2c(c1)NC(=O)/C2=C(\Nc1ccc(N(C)C(=O)CN2CCN(C)CC2)cc1)c1ccccc1 [Nintedanib]
